The subject of one data set is prolactin secretion. Briefly: Anti-prolactin activity: egg-nidation inhibition in rats. It counts as in vivo, rat (Sprague Dawley). To be noted: Rattus norvegicus, po, 120 h, read-out: Nidation inhibition in rats ED50. The text has this: The prolactin secretion inhibitory action of the compounds has been indirectly evaluated by determining the egg-nidation inhibitory action in rats. For the ergoline derivatives this activity is considered to be correlated with the anti-prolactin activity (E. FLUCKIGER and E. DEL POZO,Handb. exp. Pharmac. 49, 615, 1978), since prolactin is the only hypophysial hormone involved in the maintenance of the first part of pregnancy in rats (W. K. MORISHIGE and I. ROTHCHILD, Endocrinology 95, 260, 1974).
Pregnant Sprague Dawley rats weighing 200-250 g were used. The compounds to be tested, dissolved in diluted mineral acids, were administered orally to groups from six to eight rats on day 5 of pregnancy. The animals were sacrificed on day 14 and the uteri were examined. The absence of implantation sites was taken as the criterion of anti-prolactin activity. Several doses were tested for the ED50 evaluation. As reference standard Bromocriptine was used.

The next data set can be described thus: Emetic activity in dogs. To be noted: dog, in vivo, po, observed for 6 hours; read-out: Emetic activity in dogs ED50. From the text: The emetic activity of the compounds was investigated by oral administration to male beagle dogs weighing 15-20 kg. […] Four to six animals per dose were employed for the ED50 evaluation. […] The emetic activity of the compounds is similar or lower than that of Bromocriptine. The ratio between activity and tolerance of the new ergoline derivatives accordingly is very high.

In data set [1] the test system is spontaneously hypertensive male rats, strain SHR. In words: Anti-hypertensive activity: change in blood pressure (BP) in SHR rats. It counts as in vivo, rat. To be noted: for Hypotensive activity vs Hydralazine: compound 25 mg/kg vs Hydralazine 5 mg/kg; for Tolerance on the 4th day: compound 25 mg/kg, unlike Hydralazine. How it is done:
(§1) Four spontaneously hypertensive male rats, strain SHR, weighing 250-300 g for each group were used. The animals were treated once a day for four consecutive days. Drugs were administered by gastric gavage, suspended in 5% gum arabic (0.2 ml/100 g body weight) and blood pressure (BP) and heart rate (HR) were measured by indirected tail/cuff method (BP Recorder W+W). Blood pressure and heart rate were measured on the first and fourth days of treatment 1 hour before and 1 and 5 hours after drug administration. Hydralazine and α-methyl-Dopa were used as reference drugs.

Data set [2] has the same test system. Briefly: Change in heart rate (HR) in SHR rats. It counts as in vivo, rat. How it is done:
as §1

Another data set deals with mice. In words: Acute toxicity: orientative toxicity in mice. It counts as in vivo, mouse. The following applies: per os, observed for seven days. From the text: The male mice for each group were orally treated with drugs at different dose levels for the determination of orientative toxicity.
The mark [3] stands for this setting: 5 mg/kg os, 1st day, 1 hour after dosing.
Setting [4] is: 5 mg/kg os, 1st day, 5 hours after dosing.
Where [5] appears, read: 5 mg/kg os, 4th day, 1 hour after dosing.
[6] abbreviates: 5 mg/kg os, 4th day, 5 hours after dosing.
[7] abbreviates: 25 mg/kg os, 1st day, 1 hour after dosing.
Where [8] appears, read: 25 mg/kg os, 1st day, 5 hours after dosing.
Setting [9] is: 25 mg/kg os, 4th day, 1 hour after dosing.
[10] abbreviates: 25 mg/kg os, 4th day, 5 hours after dosing.

7 compounds from US4526892A, “Dimethylaminoalkyl-3-(ergoline-8'βcarbonyl)-ureas” (Farmitalia Carlo Erba, S.p.A., priority 1982, dated 1985) can be followed below.

SMILES strings stand for the structures. Read-outs that look alike come from different tables or passages of the source. Where only a bound is given, the exact number is not on record here.

As to `CC(C)C[C@H]1C(=O)N2CCC[C@H]2[C@]2(O)O[C@](NC(=O)[C@@H]3C=C4c5cccc6[nH]c(Br)c(c56)C[C@H]4N(C)C3)(C(C)C)C(=O)N12` [2-bromo-α-ergocryptine, reference compound], the ED50 in the data set on prolactin secretion came to 5.7 mg/kg. Moreover, the TD50 at 6 h in the data set “Emetic activity in dogs” fell in the range of 0.01 to 0.02 mg/kg.

As for `CCCN1C[C@H](C(=O)N(C(=O)NC(C)C)C(C)C)C[C@@H]2c3cccc4[nH]cc(c34)C[C@H]21` [Example 5, 1,3-diisopropyl-3-(6'-n-propylergoline-8'β-carbonyl)-urea], the ED50 with prolactin secretion (p.o., day 5 of pregnancy) was determined as 0.02 mg/kg. Besides, the TD50 at 6 h in the data set “Emetic activity in dogs” is 0.01 mg/kg.

Turning to `CN1C[C@H](C(=O)N(C(=O)NC2CCCCC2)C2CCCCC2)C[C@@H]2c3cccc4[nH]cc(c34)C[C@H]21` [Example 7, 1,3-dicyclohexyl-3-(6'-methylergoline-8'β-carbonyl)urea], the “Effect on BP (in words)” value in data set [1] (5 mg/kg) is recorded as “the antihypertensive effect was less remarkable”; in data set [1] (25 mg/kg, 1st and 4th days), “significant decrease BP”. Also, the “Change in BP” value in data set [1] (setting [3]) is reported as -12 mmHg; in data set [1] (setting [4]), -10 mmHg; in data set [1] (setting [5]), -15 mmHg; in data set [1] (setting [6]) it was -7 mmHg; in data set [1] (setting [7]), -30 mmHg; in data set [1] (setting [8]), -57 mmHg. Also, the “Change in BP” value in data set [1] (setting [9]) is reported as -30 mmHg; in data set [1] (setting [10]) it was -10 mmHg. In addition, the “Hypotensive activity vs Hydralazine” value in data set [1] is recorded as “comparable to that of Hydralazine”. In addition, the “Tolerance on the 4th day” value in data set [1] is “no tolerance on the 4th day”. Besides, the “Change in HR” value in data set [2] (setting [3]) is given as 0 beats/minute; in data set [2] (setting [4]), -10 beats/minute; in data set [2] (setting [5]), 0 beats/minute; in data set [2] (setting [6]) it was 0 beats/minute; in data set [2] (setting [7]), “+5 beats/minute”; in data set [2] (setting [8]), -20 beats/minute. Moreover, the results for the “Change in HR” value in data set [2] (setting [9]) and in data set [2] (setting [10]) were -17 beats/minute and -2 beats/minute, respectively. Further, in the data set with mice, the “Orientative toxicity in mice” value is on record as above 800 mg/kg.

In the case of `CO[C@]12C[C@@H](C(=O)N(C(=O)NC3CCCCC3)C3CCCCC3)CN(C)[C@@H]1Cc1c[nH]c3cccc2c13` [Example 9, 1,3-dicyclohexyl-3-(10'α-methoxy-6'-methylergoline-8'β-carbonyl)-urea], the “Change in BP” value is listed as -30 mmHg in data set [1] (setting [7]), -37 mmHg in data set [1] (setting [8]), -5 mmHg in data set [1] (setting [9]) and -23 mmHg in data set [1] (setting [10]). For the same compound, the “Effect on BP (in words)” value in data set [1] (25 mg/kg, 1st day) was “marked decrease of BP”; in data set [1] (25 mg/kg, 4th day, first hour after dosing), “the hypotensive effect was still observed on the fourth day even if less remarkable”. Further, in data set [1], the “Hypotensive activity vs Hydralazine” value is “comparable to that of Hydralazine”. The “Tolerance on the 4th day” value in data set [1] was “no tolerance on the 4th day”. Also, the “Change in HR” value in data set [2] (setting [7]) is reported as -20 beats/minute; in data set [2] (setting [8]) it was -10 beats/minute; in data set [2] (setting [9]), 0 beats/minute; in data set [2] (setting [10]), -20 beats/minute. Also, the “Orientative toxicity in mice” value in the data set on mice is above 800 mg/kg.

As to `CCNC(=O)N(CCCN(C)C)C(=O)[C@@H]1C[C@@H]2c3cccc4[nH]cc(c34)C[C@H]2N(C)C1` [Example 13, 1-ethyl-3-(3'-dimethylaminopropyl)-3(6'-methylergoline-8'β-carbonyl)-urea], the ED50 with prolactin secretion turned out to be 0.3 mg/kg. Besides, the TD50 at 6 h in “Emetic activity in dogs” turned out to be 0.01 mg/kg.

For `C=CCN1C[C@H](C(=O)N(CCCN(C)C)C(=O)NCC)C[C@@H]2c3cccc4[nH]cc(c34)C[C@H]21` [Example 19, 1-ethyl-3-(3'-dimethylaminopropyl)-3-(6'-allylergoline-8'βcarbonyl)-urea], the ED50 in the data set on prolactin secretion (p.o., day 5 of pregnancy) amounted to 0.03 mg/kg. Also, the TD50 at 6 h in “Emetic activity in dogs” was 0.02 mg/kg.

With `CCCN1C[C@H](C(=O)N(CCCN(C)C)C(=O)NCC)C[C@@H]2c3cccc4[nH]cc(c34)C[C@H]21` [Example 21, 1-ethyl-3-(3'-dimethylaminopropyl)-3-(6'-n-propylergoline-8'β-carbonyl)-urea], in the data set with prolactin secretion (p.o., day 5 of pregnancy), the ED50 was determined as 0.02 mg/kg. For the same compound, the TD50 at 6 h in “Emetic activity in dogs” was 0.02 to 0.04 mg/kg.

By ED50 is commonly meant the dose at which the effect has come halfway, by size or by number of responders.
